Results: EP0395099B1 (priority 1989, dated 1990)
Read-outs that look alike come from different tables or passages of the source.

System: Staphylococcus aureus strain FRI-1169
Test: microbe, parasite or virus in culture
Format: cell-based
Details: for inhibition at 1 % / inhibition at 0.1 % / inhibition at 0.5 % / inhibition at 10 %: Staphylococcus aureus; for inhibition at 0.1 %: FRI1169, read-out: Reduction in TSST-1 Formation, Example 11: test tampon comprising 0.1% fatty acid ester; for inhibition at 0.5 %: FRI1169, read-out: Reduction in TSST-1 Formation, Example 11: test tampon comprising 0.5% fatty acid ester; for inhibition at 10 %: FRI1169, read-out: Reduction in TSST-1 Formation, Example 11: test tampon comprising 10% fatty acid ester
[1] = Example 8: test tampon comprising 1% by weight of the ester, 24 hours at 37°C
[2] = Example 8: test tampon comprising 1% by weight of the ester, 24 hours at 37°C, ELISA
[3] = FRI1169, read-out: REDUCTION IN TSST-1 FORMATION, Example 8: test tampon comprising 1% by weight of the ester, vs untreated control tampon
[4] = Example 11: test tampon comprising 0.1% fatty acid ester
[5] = Example 11: test tampon comprising 0.5% fatty acid ester
[6] = Example 11: test tampon comprising 1.0% fatty acid ester
[7] = Example 11: test tampon comprising 10% fatty acid ester
[8] = FRI1169, read-out: Reduction in TSST-1 Formation, Example 11: test tampon comprising 1.0% fatty acid ester

| Structure (SMILES) | FINAL CONCENTRATION OF S. AUREUS CELLS, log to the base 10 [1] | Total Amount TSST-1 Produced [2] | inhibition at 1 % [3] | Log of Final Concn. of S. aureus [4] | Total Amount TSST-1 Produced [4] | Log of Final Concn. of S. aureus [5] | Total Amount TSST-1 Produced [5] | Log of Final Concn. of S. aureus [6] | Total Amount TSST-1 Produced [6] | Log of Final Concn. of S. aureus [7] | Total Amount TSST-1 Produced [7] | inhibition at 0.1 % | inhibition at 0.5 % | inhibition at 1 % [8] | inhibition at 10 % |
| --- | --- | --- | --- | --- | --- | --- | --- | --- | --- | --- | --- | --- | --- | --- | --- |
| CCCCCCCCCCCCCCCCCC(=O)OCC(O)CO (stereo not drawn) [Tampon No. 5, Glyceryl monostearate] | 8.78 /ml | 6.43 »g | 60% | – | – | – | – | – | – | – | – | – | – | – | – |
| CCCCCCCCCCCCCC(=O)OCC(O)CO (stereo not drawn) [Tampon No. 3, Glyceryl monomyristate] | 8.70 /ml | 0.58 »g | 96.6% | – | – | – | – | – | – | – | – | – | – | – | – |
| CCCCCCCCCCCC(=O)OCC(O)CO (stereo not drawn) [Tampon No. 2, Glyceryl monolaurate] | 6.81 /ml | 0.14 »g | 99.1% | – | – | – | – | – | – | – | – | – | – | – | – |
| CCCCCCCCCCCCCCCC(=O)OCC(O)CO (stereo not drawn) [Tampon No. 4, Glyceryl monopalmitate] | 9.15 /ml | 1.75 »g | 89.7% | – | – | – | – | – | – | – | – | – | – | – | – |
| CCCCCCCCCCCC(=O)OCC(C)O (stereo not drawn) [Tampon 1, 2-Hydroxy-1-propyl laurate] | – | – | – | 9.1 /ml | 7.93 »g | 7.64 /ml | 1.25 »g | 8.79 /ml | 0.09 »g | 8.37 /ml | 0.05 »g | ~7% | 85% | ~99% | 99% |
| CCCCCCCCCCCC(=O)OCCOCCO [Tampon 2, Diethylene glycol monolaurate] | – | – | – | 8.45 /ml | 0.12 »g | 7.40 /ml | 0.01 »g | 6.13 /ml | 0.01 »g | 7.42 /ml | 0.11 »g | 99% | 99% | ~99% | 99% |
| CCCCCCCC/C=C\CCCCCCCC(=O)OCC(O)CO (stereo not drawn) [Tampon No. 6, Glyceryl monooleate] | 8.83 /ml | 1.01 »g | 94.1% | – | – | – | – | – | – | – | – | – | – | – | – |
